US6800470B2, “Mammalian sphingosine kinase type 2 isoforms, cloning, expression and methods of use thereof” (Sankyo Company, Ltd., priority 2000, dated 2004)
“Also recorded” adds a separate entry of the source. Blank lines part the entries; values can stand above or below the molecule they belong to.

Tests used:
mSPHK2 = biological target: T1, mSPHK2 (Mus musculus, UniProt Q9JIA7); assay: SPHK activity assay with recombinant mSPHK2 (cytosol/lysates of transfected HEK293 cells, [g-32P]ATP, TLC); assay type: biochemical; details: for SPHK-dependent phosphorylation by SPHK2 (substrate specificity): lipids 50 mM as printed, cytosol of HEK293 cells transfected with mSPHK2, compared with D-erythro-sphingosine; for salt concentration with maximal stimulation of SPHK2 activity: increasing salt concentration, FIG. 5C
T1 construct: The open reading frames of mSPHK2 and hSPHK2 encode polypeptides of 617 and 618 amino acids, respectively; made in house; host or cells: HEK293 (ATCC CRL-1573), transient transfection; unpurified cytosol or whole lysate
T1 sequence (Q9JIA7 1-617): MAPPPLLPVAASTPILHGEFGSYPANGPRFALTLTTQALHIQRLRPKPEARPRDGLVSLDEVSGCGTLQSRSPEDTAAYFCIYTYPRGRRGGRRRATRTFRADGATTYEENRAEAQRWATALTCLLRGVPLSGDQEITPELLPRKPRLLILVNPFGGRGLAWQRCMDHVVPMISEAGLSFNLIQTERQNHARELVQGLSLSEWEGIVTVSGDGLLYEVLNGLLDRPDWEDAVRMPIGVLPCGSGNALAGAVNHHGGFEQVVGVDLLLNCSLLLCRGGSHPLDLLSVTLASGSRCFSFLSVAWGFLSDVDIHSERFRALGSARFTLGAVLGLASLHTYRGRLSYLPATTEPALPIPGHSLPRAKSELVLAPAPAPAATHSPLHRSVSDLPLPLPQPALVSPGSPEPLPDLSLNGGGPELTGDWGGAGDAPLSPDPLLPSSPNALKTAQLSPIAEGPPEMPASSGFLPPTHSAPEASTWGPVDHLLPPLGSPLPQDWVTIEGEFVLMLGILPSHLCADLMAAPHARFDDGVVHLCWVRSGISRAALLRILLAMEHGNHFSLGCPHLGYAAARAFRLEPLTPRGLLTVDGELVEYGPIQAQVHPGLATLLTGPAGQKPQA
Experimental: Lanes: 1, D-erythro-sphingosine (“D-erythro-Sph”); 2, D-erythro-dihydrosphingosine (“D-erythro-DHS”); 3, D, L-threo-DHS; 4, N,N-dimethylsphingosine (“DMS”); 5, C2-ceramide; 6, C16-ceramide; 7, diacylglycerol; 8, phosphatidylinositol; 9, phytosphingosine. Data are expressed as percentage of phosphorylation of D-erythro-Sph.
SPHK activity in HEK293 cell lysates after transfection as in FIG. 4A was measured with 10 μM D-erythro-sphingosine in the presence of increasing concentrations of DMS.
SPHK activity was measured with varying concentrations of D-erythro-sphingosine in the absence (open circles) or presence of 10 μM (filled squares) or 20 μM DMS (filled triangles).
FIG. 4D are Lineweaver-Burk plots.
(§1) In FIGS. 5B and 5C, the SPHK activity in HEK293 cell lysates was measured 24 hours after transfection with mSPHK1 (FIG. 5B) or mSPHK2 (FIG. 5C) in the absence or presence of increasing concentrations of NaCl (open squares) or KCl (filled circles).
FIG. 5E are Lineweaver-Burk plots of data from FIG. 5D.
(§2) HEK293 cells were transfected with mSPHK1a (open circles) or mSPHK2 (filled circles) and the activities of each in cell lysates were measured after 24 hours in the presence of the indicated concentrations of Triton X-100 (FIG. 6A) or BSA (FIG. 6B).
(§3) HEK293 cells were transfected with mSPHK1a (circles) or mSPHK2 (triangles) and the activities of each in cell lysates were measured after 24 hours in the presence of the indicated concentrations of phosphatidylserine (filled symbols) or phosphatidylcholine (open symbols). Data are expressed as percentage of control activity measured without any additions.
(§4) Human embryonic kidney cells (HEK293, ATCC CRL-1573) and NIH 3T3 fibroblasts (ATCC CRL-1658) were cultured as described in Olivera, A., Kohama, T., Edsall, L. C., Nava, V., Cuvillier, O., Poulton, S., and Spiegel, S., J. Cell Biol., 147 (1999) 545-558. HEK293 cells were seeded at 6×10^5 per well in poly-L-lysine coated 6 well plates. After 24 hours, cells were transfected with 1 μg of vector alone or with vectors containing sphingosine kinase constructs and 6 μl of “Lipofectamine PLUS” reagent plus 4 μl of “Lipofectamine” reagent per well. One to three days after transfection, cells were harvested and lysed by freeze-thawing as described in Kohama, T., Olivera, A., Edsall, L., Nagiec, M. M., Dickson, R., and Spiegel, S., J. Biol. Chem., 273, (1998), 23722-23728. In some experiments, cell lysates were fractionated into cytosol and membrane fractions by centrifugation at 100,000×g for 60 minutes. SPHK activity was determined in the presence of sphingosine, prepared as a complex with 4 mg/ml BSA, and [g-32P] ATP in kinase buffer (Olivera, A. and Spiegel, S. in Methods in Molecular Biology, (Bird, I. M. ed.), (1998), Vol. 105, 233-242, Humana Press, Inc., Totowa, N.J.), containing 200 mM KCl, unless indicated otherwise. 32P-SPP was separated by TLC and quantified with a phosphoimager as previously described.

mSPHK1a [1] = biological target: T2, mSPHK1a (Mus musculus, UniProt Q8CI15); assay: SPHK activity assay with recombinant mSPHK1a (lysates of transfected HEK293 cells); assay type: biochemical; details: for inhibition of SPHK1 activity: salt concentration 200 mM
T2 construct: made in house; host or cells: HEK293 (ATCC CRL-1573), transient transfection; unpurified cell lysate
T2 sequence (Q8CI15 1-381 isoform Q8CI15-3): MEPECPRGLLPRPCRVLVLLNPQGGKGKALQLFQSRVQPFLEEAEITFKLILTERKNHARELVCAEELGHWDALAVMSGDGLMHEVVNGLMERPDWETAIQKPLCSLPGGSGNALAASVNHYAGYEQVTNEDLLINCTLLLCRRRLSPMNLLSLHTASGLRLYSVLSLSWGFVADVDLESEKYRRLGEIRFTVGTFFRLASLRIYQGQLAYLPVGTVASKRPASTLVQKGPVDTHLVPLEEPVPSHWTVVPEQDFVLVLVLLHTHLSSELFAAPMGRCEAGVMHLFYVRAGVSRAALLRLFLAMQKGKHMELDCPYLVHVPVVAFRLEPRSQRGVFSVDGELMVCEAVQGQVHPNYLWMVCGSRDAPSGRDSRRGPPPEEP
Experimental: as §1, §2, §3, §4

mSPHK1a [2] = biological target: T2, mSPHK1a; details: cited from earlier work; for inhibition of SPHK1: previously shown (Edsall et al. 1998)
HEK293 cells [3] = assay: SPHK activity in HEK293 cells transiently transfected with SPHK expression vectors (cytosol and particulate fractions); assay type: cell-based, human; details: 24 hours after transfection of HEK293 cells
Experimental: In FIG. 3A, HEK 293 cells were transiently transfected with an empty vector or with mSPHK2 or hSPHK2 expression vectors. After 24 hours, SPHK activity was measured in cytosol (open bars) and particulate fractions (filled bars). The data are means±S.D. Parental and vector-transfected cells had basal SPHK activities of 26 and 37 pmol/min/mg, respectively.
as §4

HEK293 cells [4] = assay: Mass levels of SPP in HEK293 cells after transfection with SPHK2; assay type: cell-based, human; details: HEK 293 cells after transfection
Experimental: Mass levels of SPP in HEK293 cells transfected with an empty vector (open bars) or with mSPHK2 (filled bars) or with hSPHK2 (hatched bars) were measured as described hereinbelow. The data are expressed as pmol/nmol phospholipid.
Cells were washed with PBS and scraped in 1 ml of methanol containing 2.5 μl concentrated HCl. Lipids were extracted by adding 2 ml chloroform/1M NaCl (1:1, v/v) and 100 μl 3N NaOH and phases separated. The basic aqueous phase containing SPP, and devoid of sphingosine, ceramide, and the majority of phospholipids, was transferred to a siliconized glass tube. The organic phase was re-extracted with 1 ml methanol/1M NaCl (1:1, v/v) plus 50 μl 3N NaOH, and the aqueous fractions were combined. Mass measurement on SPP in the aqueous phase and total phospholipids in the organic phase were measured exactly as described in Edsall, L. C., Pirianov, G. G., and Spiegel, S., J. Neurosci., 17, (1997) 6952-6960; Edsall, L. C., and Spiegel, S., Anal. Biochem., 272, (1999) 80-86).

- phosphorylation by SPHK1 (mSPHK1a [1]): not phosphorylated at all
Molecule: CCCCCCCCCCCCCC[C@@H](O)[C@@H](O)[C@@H](N)CO [phytosphingosine]
- SPHK-dependent phosphorylation by SPHK2 (substrate specificity) (mSPHK2): significantly phosphorylated; also recorded: to a lesser extent

- effect on SPHK2 activity (mSPHK2; Triton X-100 0.5%): almost completely inhibited
- effect on SPHK2 activity (mSPHK2; detergent below 0.005%): no effect
- effect on SPHK2 activity (mSPHK2; in words): inhibited
- increase of SPHK1 activity (mSPHK1a [1]; Triton X-100 0.5%): more than 4 fold
- effect on SPHK1 activity (mSPHK1a [1]; detergent below 0.005%): no effect
- effect on SPHK1 activity (mSPHK1a [1]; in words): markedly increased
Molecule: Triton X-100

- SPHK-dependent phosphorylation by SPHK2 (substrate specificity) (mSPHK2): not phosphorylated
Molecule: diacylglycerol

- effect on SPHK2 activity (mSPHK2; in words): no effect
- effect on SPHK1 activity (mSPHK1a [1]; in words): no effect
Molecule: phosphatidylcholine [phosphatidyicholine]

- SPHK-dependent phosphorylation by SPHK2 (substrate specificity) (mSPHK2): not phosphorylated
Molecule: phosphatidylinositol

- effect on SPHK2 activity (mSPHK2; in words): stimulated
- maximal increase of SPHK2 activity (mSPHK2; phosphatidylserine 40 μg/ml): 4 fold
- effect on SPHK1 activity (mSPHK1a [1]; in words): stimulated
- maximal increase of SPHK1 activity (mSPHK1a [1]; phosphatidylserine 40 μg/ml): 4 fold
Molecule: phosphatidylserine

Continued, molecule first:

Molecule: CCCCCCCCCCCCC/C=C/[C@@H](O)[C@H](CO)NC(C)=O [C2-ceramide]
- SPHK-dependent phosphorylation by SPHK2 (substrate specificity) (mSPHK2): not phosphorylated

Molecule: CCCCCCCCCCCCC/C=C/[C@@H](O)[C@H](CO)NC(=O)CCCCCCCCCCCCCCC [C16-ceramide]
- SPHK-dependent phosphorylation by SPHK2 (substrate specificity) (mSPHK2): not phosphorylated

Molecule: CCCCCCCCCCCCCCC[C@H](O)[C@@H](N)CO [D,L-threo-dihydrosphingosine]
- SPHK-dependent phosphorylation by SPHK2 (substrate specificity) (mSPHK2): significantly phosphorylated
- SPHK-dependent phosphorylation by SPHK2 (substrate specificity) (mSPHK2; listed as D, L-threo-dihydrosphingosine): to a lesser extent
- phosphorylation by SPHK1 (mSPHK1a [1]): not phosphorylated at all

Molecule: CCCCCCCCCCCCCCC[C@@H](O)[C@@H](N)CO [D-erythro-dihydrosphingosine]
- SPHK-dependent phosphorylation by SPHK2 (substrate specificity) (mSPHK2): better substrate for SPHK2 than D-erythro-sphingosine

Molecule: CCCCCCCCCCCCC/C=C/[C@@H](O)[C@@H](N)CO [D-erythro-sphingosine]
- phosphorylation by SPHK1 (substrate rank) (mSPHK1a [2]; Kohama et al. 1998): best substrate

Molecule: CCCCCCCCCCCCCCC[C@@H](O)[C@@H](N)CO [DHS, dihydrosphingosine]
- SPHK-dependent phosphorylation by SPHK2 (substrate specificity) (mSPHK2): even better substrate than D-erythro-sphingosine
- inhibition of SPHK1 (mSPHK1a [2]): potent competitive inhibitors; also recorded: potent inhibitor

Molecule: [Cl-].[K+] [KCl]
- Km value of mSPHK2 for sphingosine in the presence of KCl (mSPHK2; 50 or 200 mM KCl): not affected
- Vmax of mSPHK2 (mSPHK2; in the presence of 50 mM KCl): 0.3 nmol/min/mg
- Vmax of mSPHK2 (mSPHK2; in the presence of 200 mM KCl): 1 nmol/min/mg
- effect on SPHK2 activity (mSPHK2; in words): dramatically stimulated; also recorded: markedly stimulated
- salt concentration with maximal stimulation of SPHK2 activity (mSPHK2): 400 mM
- inhibition of SPHK1 activity (mSPHK1a [1]): 50%

Molecule: [Cl-].[Na+] [NaCl]
- effect on SPHK2 activity (mSPHK2; in words): dramatically stimulated; also recorded: markedly stimulated
- salt concentration with maximal stimulation of SPHK2 activity (mSPHK2): 400 mM
- inhibition of SPHK1 activity (mSPHK1a [1]): 50%

Molecule: N,N-dimethylsphingosine [DMS]
- inhibition of SPHK2 (mSPHK2; 10 μM D-erythro-sphingosine, increasing concentrations of DMS (FIG. 4B)): potent inhibitor
- manner of inhibition of SPHK2 (mSPHK2; kinetic analysis, FIG. 4C and 4D): non-competitive
- SPHK-dependent phosphorylation by SPHK2 (substrate specificity) (mSPHK2): not phosphorylated
- Ki (mSPHK2; recombinant mSPHK2, HEK293 cell lysates, varying D-erythro-sphingosine, 10 or 20 μM DMS, Lineweaver-Burk, read-out: Ki for DMS with SPHK2): 12 µM
- inhibition of SPHK1 (mSPHK1a [2]): potent competitive inhibitors; also recorded: competitive inhibitor

Molecule: mSPHK1: first cloned mammalian (murine) sphingosine kinase, type 1
- increase of in vitro SPHK activity over basal levels (HEK293 cells [3]): 610 fold

B1: hSPHK2: human sphingosine kinase type 2, polypeptide of 618 amino acids (SEQ ID NO 14) (protein)
chain: MAPPPPPLAASTPLLHGEFGSYPARGPRFALTLTSQALHIQRLRPKPEARPRGGLVPLAEVSGCCTLRSRSPSDSAAYFCIYTYPRGRRGARRRATRTFRADGAATYEENRAEAQRWATALTCLLRGLPLPGDGEITPDLLPRPPRLLLLVNPFGGRGLAWQWCKNHVLPMISEAGLSFNLIQTERQNHARELVQGLSLSEWDGIVTVSGDGLLHEVLNGLLDRPDWEEAVKMPVGILPCGSGNALAGAVNQHGGFEPALGLDLLLNCSLLLCRGGGHPLDLLSVTLASGSRCFSFLSVAWGFVSDVDIQSERFRALGSARFTLGTVLGLATLHTYRGRLSYLPATVEPASPTPAHSLPRAKSELTLTPDPAPPMAHSPLHRSVSDLPLPLPQPALASPGSPEPLPILSLNGGGPELAGDWGGAGDAPLSPDPLLSSPPGSPKAALHSPVSEGAPVIPPSSGLPLPTPDARVGASTCGPPDHLLPPLGTPLPPDWVTLEGDFVLMLAISPSHLGADLVAAPHARFDDGLVHLCWVRSGISRAALLRLFLAMERGSHFSLGCPQLGYAAARAFRLEPLTPRGVLTVDGEQVEYGPLQAQMHPGIGTLLTGPPGCPGREP
- increase of in vitro SPHK activity over basal levels (HEK293 cells [3]): 35 fold
- increase in SPP (HEK293 cells [4]): 3.3 fold
